The text below walks through data of ChEMBL document CHEMBL1139145, “Inhibition of cancer cell adhesion by heterochiral Pro-containing RGD mimetics” (Bioorg Med Chem Lett, 2007).

SMILES strings stand for the structures. Residues, ends and D or L forms follow the SMILES beside them.

In this assay the target is Integrin alpha-V/beta-3 (Homo sapiens, UniProt P05106+P06756). Put plainly: Inhibition of integrin alpha-v-beta-3 receptor-mediated human SK-MEL-24 cell adhesion to fibronectin by fluorimetry. Type of assay: protein-complex assay.
Integrin alpha-V/beta-3, sequence (P05106 27-788 limits assumed): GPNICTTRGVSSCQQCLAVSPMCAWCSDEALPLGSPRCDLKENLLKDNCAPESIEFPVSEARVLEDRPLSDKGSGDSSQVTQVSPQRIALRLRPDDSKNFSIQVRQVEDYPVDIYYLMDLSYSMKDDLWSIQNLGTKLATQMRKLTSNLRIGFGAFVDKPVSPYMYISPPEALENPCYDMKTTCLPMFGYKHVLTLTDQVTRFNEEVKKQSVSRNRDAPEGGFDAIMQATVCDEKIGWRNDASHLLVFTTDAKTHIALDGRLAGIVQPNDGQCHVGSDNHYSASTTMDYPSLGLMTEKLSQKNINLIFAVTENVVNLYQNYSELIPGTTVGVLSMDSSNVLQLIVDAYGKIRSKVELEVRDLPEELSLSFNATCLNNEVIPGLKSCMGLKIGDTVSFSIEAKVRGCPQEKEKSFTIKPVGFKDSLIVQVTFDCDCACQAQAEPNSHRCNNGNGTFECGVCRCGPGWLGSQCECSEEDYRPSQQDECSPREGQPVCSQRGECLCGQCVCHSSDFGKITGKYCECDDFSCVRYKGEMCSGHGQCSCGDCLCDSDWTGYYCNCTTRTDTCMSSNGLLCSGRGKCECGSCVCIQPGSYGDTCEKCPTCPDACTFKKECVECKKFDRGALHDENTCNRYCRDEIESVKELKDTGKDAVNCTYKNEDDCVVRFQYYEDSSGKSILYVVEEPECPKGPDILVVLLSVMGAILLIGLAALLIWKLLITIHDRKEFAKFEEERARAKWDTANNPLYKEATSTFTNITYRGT
Integrin alpha-V/beta-3, sequence (P06756 31-889 limits assumed): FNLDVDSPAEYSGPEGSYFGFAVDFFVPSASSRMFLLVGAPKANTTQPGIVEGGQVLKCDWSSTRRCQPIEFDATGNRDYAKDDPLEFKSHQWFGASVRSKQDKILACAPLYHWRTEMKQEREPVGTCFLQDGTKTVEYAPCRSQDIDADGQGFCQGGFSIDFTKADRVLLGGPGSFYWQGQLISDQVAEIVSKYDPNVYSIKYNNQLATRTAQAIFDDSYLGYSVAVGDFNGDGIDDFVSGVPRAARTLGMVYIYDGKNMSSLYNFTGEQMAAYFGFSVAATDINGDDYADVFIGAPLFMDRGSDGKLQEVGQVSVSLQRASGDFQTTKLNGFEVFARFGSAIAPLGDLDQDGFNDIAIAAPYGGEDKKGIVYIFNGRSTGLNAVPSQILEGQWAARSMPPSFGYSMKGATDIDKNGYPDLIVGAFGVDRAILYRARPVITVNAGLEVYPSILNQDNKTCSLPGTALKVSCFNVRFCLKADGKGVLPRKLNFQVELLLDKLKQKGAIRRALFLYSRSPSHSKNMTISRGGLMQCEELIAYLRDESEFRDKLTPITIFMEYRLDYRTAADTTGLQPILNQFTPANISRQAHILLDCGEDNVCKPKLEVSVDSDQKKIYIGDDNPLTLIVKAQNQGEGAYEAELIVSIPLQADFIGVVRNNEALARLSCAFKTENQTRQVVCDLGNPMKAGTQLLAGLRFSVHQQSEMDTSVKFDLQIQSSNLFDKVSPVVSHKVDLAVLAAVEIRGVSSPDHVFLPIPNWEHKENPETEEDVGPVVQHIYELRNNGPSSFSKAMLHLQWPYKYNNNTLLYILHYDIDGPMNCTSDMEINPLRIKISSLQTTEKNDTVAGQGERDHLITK
Integrin alpha-V/beta-3, sequence (P06756 891-1048 limits assumed): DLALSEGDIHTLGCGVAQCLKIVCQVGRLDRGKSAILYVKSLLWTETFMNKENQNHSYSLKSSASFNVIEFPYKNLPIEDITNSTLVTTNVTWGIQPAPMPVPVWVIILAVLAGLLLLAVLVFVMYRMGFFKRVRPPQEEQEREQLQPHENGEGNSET
On to `N=C(N)NCCC(=O)N1CCC[C@@H]1C(=O)N[C@@H](CCC(=O)O)C(=O)NCc1ccccc1`, for which the half-maximal inhibitory concentration (IC50) turned out to be 35 nM. This lies in the double-digit nanomolar range.
`CCCNC(=O)[C@H](CC(=O)O)NC(=O)[C@H]1CCCN1C(=O)CCCN=C(N)N` yielded an IC50 of 20000 nM. This IC50 lies about 570-fold higher than the previous one.
The molecule `Cc1ccc(S(=O)(=O)N[C@@H](CCCNC(=N)N)C(=O)N2CCC[C@H]2C(=O)N[C@@H](CC(=O)O)C(=O)NCc2ccccc2)cc1` returned an IC50 of 100000 nM. Against the preceding molecule, the IC50 is about 5-fold higher.
The molecule `N=C(N)NCCCC(=O)N1CCC[C@@H]1C(=O)N[C@@H](CC(=O)O)C(=O)NCc1ccccc1` yielded an IC50 of 26 nM.
Molecule `NC(N)=NCCCCC(=O)N1CCC[C@@H]1C(=O)N[C@@H](CC(=O)O)C(=O)NCc1ccccc1` registered an IC50 of 230000 nM.
Consider `N=C(N)NCCCC(=O)N1CCC[C@@H]1C(=O)N[C@@H](CCC(=O)O)C(=O)NCc1ccccc1`, for which the IC50 amounted to 2600 nM.
Next, `NC(N)=NCCCC(=O)N1CCC[C@@H]1C(=O)NCCC(=O)O`: 1200 nM; `N=C(N)NCCC(=O)N1CCC[C@@H]1C(=O)N[C@@H](CC(=O)O)C(=O)NCc1ccccc1`: greater than 100000 nM; `Cc1ccc(S(=O)(=O)N[C@@H](CCCN=C(N)N)C(=O)N2CCC[C@@H]2C(=O)N[C@@H](CC(=O)O)C(=O)NCc2ccccc2)cc1`: 150 nM.
As for `CC(=O)N[C@@H](CC(=O)O)C(=O)N[C@@H](CCCN=C(N)N)C(=O)NCC(=O)N[C@@H](CC(=O)O)C(=O)N[C@@H](CO)C(=O)O` (Ac-DRGDS-OH), the figure is 20 nM.

As a reminder, the IC50 is the concentration needed to halve the response being measured. High values mean weaker potency, low ones greater potency.
